Measured values: US20100069387A1, “IKK Inhibitors for the Treatment of Endometriosis” (priority 2005, published 2010)
One block for each molecule: values may come before it.

Assays:
[1] = cited from earlier work
[2] = tested on: endometriotic lesions; assay: Nude mouse xenograft model of endometriosis (human endometrial tissue injected in ovarectomized nude mice); format: in vivo; conditions: for Lesion (% Progesterone) Compared to progesterone treated group, decrease: treatment started 10 days after tissue injection
Procedure: Human endometrial tissue was injected in ovarectomized nude mice to establish the disease (Bruner-Tran et al 2002). In brief, endometrial biopsies obtained from normal volunteers or from endometriotic patients were cut into small pieces and cultured in the presence of estradiol for 24 h. Treated tissues, were injected either subcutaneously or intraperitoneally into ovarectomized nude mice with estradiol implant. Within 2-4 days of injection, ectopic endometriotic lesions develop in animals. Treatment with either progesterone or IKK inhibitor-5 (1-(4-{4-[4-(4-Chloro-phenyl)-pyrimidin-2-ylamino]-benzoyl}-piperazin-1-yl)-ethanone) was started 10 days following the injection of tissue. The compound was administered at a dose of 10 mg/kg and 30 mg/kg/animal for 15 days. […] Following the completion of treatment, animals were sacrificed, lesions developed from the transplanted tissue found in both subcutaneous and intraperitoneal sites, were measured (both size and number).
The IKK inhibitor treatment had no effect on the uterine weight and size of the animals.

[3] = tested on: endometriotic lesions; conditions: control treatment; earlier work using this model; cited from earlier work
[4] = tested on: endometriotic lesions; conditions: experimental model of endometriosis; cited from earlier work
[5] = 10 mg/kg × 15 days, listed as IKK inhibitor
[6] = 30 mg/kg × 15 days, listed as IKK inhibitor

Molecule: C#C[C@]1(O)CC[C@H]2[C@@H]3CCC4=Cc5oncc5C[C@]4(C)[C@H]3CC[C@@]21C [Danazol]
recurrence rates ([1]; after up to 4 years): 40%-50% | patients suffering from pain with improved symptoms ([1]; endometriosis patients): 66-100%

effect on the uterine weight and size of the animals ([2]; nude mice, 15 days treatment): no effect
Molecule: CC(=O)N1CCN(C(=O)c2ccc(Nc3nccc(-c4ccc(Cl)cc4)n3)cc2)CC1 [IKK inhibitor-5, 1-(4-{4-[4-(4-Chloro-phenyl)-pyrimidin-2-ylamino]-benzoyl}-piperazin-1-yl)-ethanone]
Lesion size, decrease ([2]; 10 mg/kg × 15 days): 90% Decrease | Lesion (% Progesterone) Compared to progesterone treated group, decrease ([2]; 10 mg/kg × 15 days): 125% Decrease | Lesion (% Progesterone) Compared to progesterone treated group, decrease [2, 5]: 125% | Lesion size, decrease [2, 5]: 90% | Lesion size, decrease ([2]; 30 mg/kg × 15 days): 75% Decrease | Lesion (% Progesterone) Compared to progesterone treated group, decrease ([2]; 30 mg/kg × 15 days): 100% Decrease | Lesion (% Progesterone) Compared to progesterone treated group, decrease [2, 6]: 100% | Lesion size, decrease [2, 6]: 75%

Molecule: CC(=O)[C@H]1CC[C@H]2[C@@H]3CCC4=CC(=O)CC[C@]4(C)[C@H]3CC[C@]12C [progesterone]
disease progression [3]: prevents disease progression

B1: rh-TBP-1: recombinant human TNFα binding protein (protein, UniProt P19438 30-211, looked up)
extracellular domain: LVPHLGDREKRDSVCPQGKYIHPQNNSICCTKCHKGTYLYNDCPGPGQDTDCRECESGSFTASENHLRHCLSCSKCRKEMGQVEISSCTVDRDTVCGCRKNQYRHYWSENLFQCFNCSLCLNGTVHLSCQEKQNTVCTCHAGFFLRENECVSCSNCKKSLECTKLCLPQIENVKGTEDSGTT
modifications: extracellular domain
size and severity of endometriotic lesions [4]: effective in reducing the size and severity of endometriotic lesions
